According to patent US12570671B2 (BRISTOL-MYERS SQUIBB COMPANY, priority 2020, dated 2026):

Key:
[1] = target: Helios (Homo sapiens, UniProt Q96SW2+Q9UKS7); test: Helios Cellular Degradation Assay (Helios readout); format: cell-based; set-up: Jurkat cells were plated at 80,000 cells/well; endogenous in cells; host or cells: Jurkat; settings: Jurkat cells, 72 h incubation, Helios-PE antibody staining, flow cytometry; read-out: Helios Jurkat IC50
Description: (§1) Jurkat cells were plated at 80,000 cells/well in 40 μL RPMI+10% FBS in a 384 well cell culture plate prior to using acoustic dispensing technology for adding compound of interest. Cell cultures were incubated for 72 h at 37° C. and 5% C02. In order to facilitate analysis, cell cultures were spun down at 200 rpm for 5 min and the supernatant was discarded. After shaking the plate to dislodge the cell pellet, cells were resuspended in 50 μL of Fixation Buffer (eBioScience FoxP3 buffer set 00-5523-00) for 60 min at room temperature. After centrifuging and discarding the supernatant, cells were permeabilized with 50 μL of Permeabilization buffer (eBioScience FoxP3 buffer set 00-5523-00) for 10 min at room temperature. Following permeabilization, cells were spun down and the supernatant was replaced with 20 μL fluorescently labelled antibodies against Helios, Ikaros and Aiolos or corresponding Isotype controls in 1× Permeabilization buffer (Ikaros-Alexa488 [Biolegend, Cat #368408, 1:50], Helios-PE [CST, Cat #29360, 1:50], Aiolos-Alexa647 [Biolegend, Cat #371106Biolegend, 1:25]) and staining reactions were incubated for 1 h at room temperature; protected from light. […] Stained cells were resuspended in 25 μL of flow cytometry staining buffer (PBS+0.2% BSA) and analyzed using an Intellicyt Ique Plus flow cytometer.

[2] = target: Ikaros (Homo sapiens, UniProt Q13422+Q96SW2); test: Helios Cellular Degradation Assay (Ikaros readout); format: cell-based; set-up: Jurkat cells were plated at 80,000 cells/well; endogenous in cells; host or cells: Jurkat; settings: Jurkat cells, 72 h incubation, Ikaros-Alexa488 antibody staining, flow cytometry; read-out: Ikaros Jurkat IC50
Description: as §1

Chain of Ikaros (Q13422 whole entry): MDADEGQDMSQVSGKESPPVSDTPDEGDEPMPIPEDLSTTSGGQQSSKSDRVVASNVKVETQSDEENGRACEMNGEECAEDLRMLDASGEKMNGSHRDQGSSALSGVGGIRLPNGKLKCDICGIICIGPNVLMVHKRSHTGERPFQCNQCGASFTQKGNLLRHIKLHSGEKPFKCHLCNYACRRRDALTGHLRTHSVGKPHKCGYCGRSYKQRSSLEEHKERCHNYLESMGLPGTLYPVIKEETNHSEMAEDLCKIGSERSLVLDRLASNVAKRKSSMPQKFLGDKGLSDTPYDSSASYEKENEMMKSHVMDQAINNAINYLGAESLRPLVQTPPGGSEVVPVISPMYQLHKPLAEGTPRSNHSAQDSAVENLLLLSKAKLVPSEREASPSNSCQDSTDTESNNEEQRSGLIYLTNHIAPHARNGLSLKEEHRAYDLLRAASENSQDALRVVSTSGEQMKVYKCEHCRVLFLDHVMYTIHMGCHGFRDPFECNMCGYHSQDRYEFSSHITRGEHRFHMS
Chain of Ikaros (Q96SW2 whole entry): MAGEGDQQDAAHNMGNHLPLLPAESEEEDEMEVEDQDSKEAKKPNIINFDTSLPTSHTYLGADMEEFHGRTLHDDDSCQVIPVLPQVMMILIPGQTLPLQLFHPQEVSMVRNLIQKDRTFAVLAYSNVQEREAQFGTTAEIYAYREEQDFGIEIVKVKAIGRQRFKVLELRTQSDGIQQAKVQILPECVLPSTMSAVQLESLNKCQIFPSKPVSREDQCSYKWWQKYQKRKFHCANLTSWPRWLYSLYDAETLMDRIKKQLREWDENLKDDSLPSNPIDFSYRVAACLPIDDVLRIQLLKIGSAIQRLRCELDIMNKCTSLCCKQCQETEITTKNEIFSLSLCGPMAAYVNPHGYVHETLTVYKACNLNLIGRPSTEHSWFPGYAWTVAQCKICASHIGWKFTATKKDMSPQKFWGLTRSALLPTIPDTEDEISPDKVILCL
Chain of Ikaros (Q16531 whole entry partner): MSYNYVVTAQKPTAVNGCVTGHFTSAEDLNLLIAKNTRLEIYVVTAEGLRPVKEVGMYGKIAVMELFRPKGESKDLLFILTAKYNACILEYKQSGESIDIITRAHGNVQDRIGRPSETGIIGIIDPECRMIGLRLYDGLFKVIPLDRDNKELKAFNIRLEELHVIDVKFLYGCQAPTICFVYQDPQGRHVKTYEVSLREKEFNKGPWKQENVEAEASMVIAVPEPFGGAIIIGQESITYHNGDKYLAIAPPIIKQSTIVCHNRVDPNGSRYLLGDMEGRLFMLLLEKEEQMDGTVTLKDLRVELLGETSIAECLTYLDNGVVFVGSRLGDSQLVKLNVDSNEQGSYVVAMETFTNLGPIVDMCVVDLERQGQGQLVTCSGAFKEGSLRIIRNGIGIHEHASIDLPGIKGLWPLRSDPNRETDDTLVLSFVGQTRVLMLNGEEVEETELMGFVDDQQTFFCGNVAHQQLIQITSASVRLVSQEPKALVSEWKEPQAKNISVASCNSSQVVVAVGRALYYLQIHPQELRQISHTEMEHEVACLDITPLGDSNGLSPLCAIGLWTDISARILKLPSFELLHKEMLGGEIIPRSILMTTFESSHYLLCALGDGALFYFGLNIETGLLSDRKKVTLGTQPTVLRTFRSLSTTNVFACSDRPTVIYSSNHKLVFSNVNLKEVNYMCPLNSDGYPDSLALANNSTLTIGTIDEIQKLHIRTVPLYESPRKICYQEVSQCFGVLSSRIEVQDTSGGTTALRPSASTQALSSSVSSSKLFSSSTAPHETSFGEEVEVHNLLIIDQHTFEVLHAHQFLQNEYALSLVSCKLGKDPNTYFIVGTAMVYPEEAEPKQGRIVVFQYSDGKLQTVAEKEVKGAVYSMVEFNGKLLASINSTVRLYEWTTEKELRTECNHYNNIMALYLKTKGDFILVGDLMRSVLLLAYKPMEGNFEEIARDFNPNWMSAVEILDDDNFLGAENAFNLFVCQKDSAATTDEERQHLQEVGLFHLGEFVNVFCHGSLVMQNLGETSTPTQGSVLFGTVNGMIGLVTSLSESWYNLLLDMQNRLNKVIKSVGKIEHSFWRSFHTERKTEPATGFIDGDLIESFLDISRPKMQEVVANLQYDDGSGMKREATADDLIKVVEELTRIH
Chain of Helios (Q9UKS7 whole entry): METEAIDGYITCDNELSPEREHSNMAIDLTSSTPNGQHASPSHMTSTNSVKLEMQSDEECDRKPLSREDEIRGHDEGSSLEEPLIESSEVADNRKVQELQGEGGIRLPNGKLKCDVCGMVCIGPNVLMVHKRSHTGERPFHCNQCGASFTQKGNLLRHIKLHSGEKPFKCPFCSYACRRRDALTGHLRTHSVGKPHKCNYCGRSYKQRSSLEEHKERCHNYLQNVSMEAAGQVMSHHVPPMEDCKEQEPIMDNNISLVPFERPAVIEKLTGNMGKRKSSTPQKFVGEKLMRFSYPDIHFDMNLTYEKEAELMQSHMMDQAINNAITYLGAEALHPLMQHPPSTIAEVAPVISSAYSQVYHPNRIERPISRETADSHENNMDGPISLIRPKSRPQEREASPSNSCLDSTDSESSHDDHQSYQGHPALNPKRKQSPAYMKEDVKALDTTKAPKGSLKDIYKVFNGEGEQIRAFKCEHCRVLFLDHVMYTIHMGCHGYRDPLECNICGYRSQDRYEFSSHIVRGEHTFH
Chain of Helios (Q96SW2 whole entry): as the sequence (Q96SW2 whole entry) above
Chain of Helios (Q16531 whole entry partner): as the sequence (Q16531 whole entry partner) above

DC50 [1]: 3.98 µM | DC50 [2]: ≥ 10 µM
Compound: O=C1CCC(N2Cc3cc(-c4cc(COCc5ccccc5)ccn4)ccc3C2=O)C(=O)N1 (centres unmarked) [Example 154]
